# In patent US20260285850A1, “SUBSTITUTED OXAZOLIDINONES AND IMIDAZOLINONES AS HERBICIDES” (FMC CORPORATION, priority 2023, published 2026):
# Key:
# Format in all cases: in vivo
# [1] = system: blackgrass (Alopecurus myosuroides); experiment: Test A postemergence application, visual injury rating 0-100; conditions: 10 days
# Summary of the method: (§1)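 Rating: visual, day 10, untreated plants as reference, 0 no effect to 100 full control. Plants were in loam-sand and were treated either preemergence via directed soil spray or postemergence at the one- to two-leaf stage.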
# [2] = system: galium (catchweed bedstraw, Galium aparine); experiment: as above; conditions: 10 days
# Summary of the method: as §1
# soybean (Glycine max) [3] = experiment: as above; conditions: 10 days
# Summary of the method: as §1
# [4] = system: wheat (Triticum aestivum); experiment: as above; conditions: 10 days
# Summary of the method: as §1
# corn (Zea mays) [5] = experiment: as above; conditions: 10 days
# Summary of the method: as §1
# [6] = system: ragweed (common ragweed, Ambrosia artemisiifolia); experiment: as above; conditions: 10 days
# Summary of the method: as §1
# [7] = system: oat, wild (wild oat, Avena fatua); experiment: as above; conditions: 10 days
# Summary of the method: as §1
# [8] = system: ryegrass, Italian (italian ryegrass, Lolium multiflorum); experiment: as above; conditions: 10 days
# Summary of the method: as §1
# [9] = system: green foxtail (Setaria viridis); experiment: as above; conditions: 10 days
# Summary of the method: as §1
# [10] = system: barnyardgrass (Echinochloa crus-galli); experiment: as above; conditions: 10 days
# Summary of the method: as §1
# [11] = system: palmer (palmer amaranth, palmer pigweed, Amaranthus palmeri); experiment: as above; conditions: 10 days
# Summary of the method: as §1
# [12] = system: horseweed (Erigeron canadensis); experiment: as above; conditions: 10 days
# Summary of the method: as §1
# kochia (Bassia scoparia) [13] = experiment: as above; conditions: 10 days
# Summary of the method: as §1
# rice (Oryza sativa) = experiment: Test B flooded paddy test, visual plant response rating 0-100; conditions: 250 g ai/ha, Flood, applied to paddy water, evaluated after 13 days
# Summary of the method: (§2)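 Visual scores versus untreated controls were recorded 13 days after treatment of greenhouse-held plants. At the 2-leaf stage, pots were flooded 3 cm above the soil surface and compounds added straight to the water.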
# [14] = system: ducksalad (Heteranthera limosa); experiment: as above; conditions: 250 g ai/ha, Flood, applied to paddy water, evaluated after 13 days
# Summary of the method: as §2
# [15] = system: sedge, umbrella (small-flower umbrella sedge, Cyperus difformis); experiment: as above; conditions: 250 g ai/ha, Flood, applied to paddy water, evaluated after 13 days
# Summary of the method: as §2
# [16] = system: barnyardgrass (Echinochloa crusgalli); experiment: as above; conditions: 250 g ai/ha, Flood, applied to paddy water, evaluated after 13 days
# Summary of the method: as §2
# [17] = system: blackgrass (Alopecurus myosuroides); experiment: Test A preemergence soil spray, visual injury rating 0-100; conditions: 10 days, 0 = no effect, 100 = complete control
# Summary of the method: as §1
# soybean (Glycine max) [18] = experiment: as above; conditions: 10 days, 0 = no effect, 100 = complete control
# Summary of the method: as §1
# [19] = system: wheat (Triticum aestivum); experiment: as above; conditions: 10 days, 0 = no effect, 100 = complete control
# Summary of the method: as §1
# corn (Zea mays) [20] = experiment: as above; conditions: 10 days, 0 = no effect, 100 = complete control
# Summary of the method: as §1
# [21] = system: ragweed (common ragweed, Ambrosia artemisiifolia); experiment: as above; conditions: 10 days, 0 = no effect, 100 = complete control
# Summary of the method: as §1
# [22] = system: oat, wild (wild oat, Avena fatua); experiment: as above; conditions: 10 days, 0 = no effect, 100 = complete control
# Summary of the method: as §1
# [23] = system: ryegrass, Italian (italian ryegrass, Lolium multiflorum); experiment: as above; conditions: 10 days, 0 = no effect, 100 = complete control
# Summary of the method: as §1
# [24] = system: green foxtail (Setaria viridis); experiment: as above; conditions: 10 days, 0 = no effect, 100 = complete control
# Summary of the method: as §1
# [25] = system: barnyardgrass (Echinochloa crus-galli); experiment: as above; conditions: 10 days, 0 = no effect, 100 = complete control
# Summary of the method: as §1
# [26] = system: palmer (palmer amaranth, palmer pigweed, Amaranthus palmeri); experiment: as above; conditions: 10 days, 0 = no effect, 100 = complete control
# Summary of the method: as §1
# kochia (Bassia scoparia) [27] = experiment: as above; conditions: 10 days, 0 = no effect, 100 = complete control
# Summary of the method: as §1
# [28] = 31 g ai/ha, postemergence, 0 = no effect, 100 = complete control
# [29] = Postemergence, 125 g ai/ha, 0 is no effect, 100 is complete control
smiles,measurement,setting,value
CC1(C(=O)NC2C=CC(C(=O)O)C2)CN(c2cc(Cl)cc(Cl)c2)C(=O)O1 (stereo not shown) [Compound 62],Blackgrass plant response rating (0-100),[1]; [28],90
same,Blackgrass plant response rating (0 to 100 scale),[1]; [29],100
same,Galium plant response rating (0-100),[2]; [28],80
same,Galium plant response rating (0 to 100 scale),[2]; [29],80
same,Soybean plant response rating (0-100),soybean (Glycine max) [3]; [28],80
same,Soybean plant response rating (0 to 100 scale),soybean (Glycine max) [3]; [29],90
same,Wheat plant response rating (0-100),[4]; [28],90
same,Wheat plant response rating (0 to 100 scale),[4]; [29],90
same,Corn plant response rating (0-100),corn (Zea mays) [5]; [28],100
same,Corn plant response rating (0 to 100 scale),corn (Zea mays) [5]; [29],100
same,Ragweed plant response rating (0-100),[6]; [28],40
same,Ragweed plant response rating (0 to 100 scale),[6]; [29],90
same,"Oat, Wild plant response rating (0-100)",[7]; [28],90
same,"Oat, Wild plant response rating (0 to 100 scale)",[7]; [29],90
same,"Ryegrass, Italian plant response rating (0-100)",[8]; [28],90
same,"Ryegrass, Italian plant response rating (0 to 100 scale)",[8]; [29],100
same,"Foxtail, Green plant response rating (0-100)",[9]; [28],90
same,"Foxtail, Green plant response rating (0 to 100 scale)",[9]; [29],90
same,Barnyardgrass plant response rating (0-100),[10]; [28],100
same,Barnyardgrass plant response rating (0 to 100 scale),[10]; [29],100
same,"Amaranth, Palmer plant response rating (0-100)",[11]; [28],90
same,"Amaranth, Palmer / Pigweed, Palmer plant response rating (0 to 100 scale)",[11]; [29],90
same,Horseweed plant response rating (0-100),[12]; [28],50
same,Horseweed plant response rating (0 to 100 scale),[12]; [29],70
same,Kochia plant response rating (0-100),kochia (Bassia scoparia) [13]; [28],70
same,Kochia plant response rating (0 to 100 scale),kochia (Bassia scoparia) [13]; [29],80
same,"Plant response rating, Rice (0 to 100 scale, 0 is no effect and 100 is complete control)",rice (Oryza sativa),15
same,"Plant response rating, Ducksalad (0 to 100 scale, 0 is no effect and 100 is complete control)",[14],90
same,"Plant response rating, Sedge, Umbrella (0 to 100 scale, 0 is no effect and 100 is complete control)",[15],98
same,"Plant response rating, Barnyardgrass (0 to 100 scale, 0 is no effect and 100 is complete control)",[16],50
same,Blackgrass plant response rating (0-100),[17]; 31 g ai/ha,30
same,Blackgrass plant response rating (0 to 100 scale),[17]; 125 g ai/ha,70
same,Soybean plant response rating (0-100),soybean (Glycine max) [18]; 31 g ai/ha,0
same,Soybean plant response rating (0 to 100 scale),soybean (Glycine max) [18]; 125 g ai/ha,60
same,Wheat plant response rating (0-100),[19]; 31 g ai/ha,80
same,Wheat plant response rating (0 to 100 scale),[19]; 125 g ai/ha,90
same,Corn plant response rating (0-100),corn (Zea mays) [20]; 31 g ai/ha,30
same,Corn plant response rating (0 to 100 scale),corn (Zea mays) [20]; 125 g ai/ha,80
same,Ragweed plant response rating (0-100),[21]; 31 g ai/ha,30
same,Ragweed plant response rating (0 to 100 scale),[21]; 125 g ai/ha,20
same,"Oat, Wild plant response rating (0-100)",[22]; 31 g ai/ha,40
same,"Oat, Wild plant response rating (0 to 100 scale)",[22]; 125 g ai/ha,70
same,"Ryegrass, Italian plant response rating (0-100)",[23]; 31 g ai/ha,60
same,"Ryegrass, Italian plant response rating (0 to 100 scale)",[23]; 125 g ai/ha,80
same,"Foxtail, Green plant response rating (0-100)",[24]; 31 g ai/ha,80
same,"Foxtail, Green plant response rating (0 to 100 scale)",[24]; 125 g ai/ha,90
same,Barnyardgrass plant response rating (0-100),[25]; 31 g ai/ha,80
same,Barnyardgrass plant response rating (0 to 100 scale),[25]; 125 g ai/ha,100
same,"Amaranth, Palmer plant response rating (0-100)",[26]; 31 g ai/ha,90
same,"Amaranth, Palmer plant response rating (0 to 100 scale)",[26]; 125 g ai/ha,100
same,Kochia plant response rating (0-100),kochia (Bassia scoparia) [27]; 31 g ai/ha,30
same,Kochia plant response rating (0 to 100 scale),kochia (Bassia scoparia) [27]; 125 g ai/ha,90
